Earlier results in patent US20100190739A1, “Rapidly Dissolving Vitamin Formulation and Methods of Using the Same” (FLEMING AND COMPANY, PHARMACEUTICALS, priority 2008, published 2010).

Columns and labels:
[1] = Institute of Medicine
[2] = not given; remark: listed apart in the source

Compound: [Cr] [Chromium, chromium]
- Doses that can cause adverse reactions (some evidence): above 250 μg

Compound: Cc1ncc(C[n+]2csc(CCO)c2C)c(N)n1 [Example B1, thiamine]
- Dose with no evidence of oral toxicity (doses as high as, taken for extended periods of time): 200 mg

Compound: Cc1ncc(CO)c(CO)c1O [Example B6, pyridoxine]
- Dose showing potential damage to sensory nerves (long term study): 200 mg/day
- Tolerable upper limit [1]: 100 mg/day

Compound: [Mn+2] [Manganese, manganese]
- Tolerable upper limit [1]: 11 mg/day
- Fraction of dietary intake absorbed [2]: 3-5%

Compound: [Mo] [Molybdenum, molybdenum]
- Intake causing significant losses of copper (in vivo): above 500 μg/day

Compound: [Se] [Selenium, selenium]
- Tolerable upper limit [1]: 0.4 mg/day

Compound: [Zn] [Zinc, zinc]
- Doses at which acute toxicity can occur (as low as) (in vivo): ≥ 30 mg/day
- Doses at which acute toxicity is more common (in vivo): exceeding 100 mg/day
- Tolerable upper limit [1]: 40 mg/day

Compound: O=C(O)c1cccnc1 [niacin]
- Tolerable upper limit [1]: 35 mg/day

Compound: cobalamin [Example B12]
- Level at which toxicity has not been demonstrated (in vivo): 10,000 × the recommended daily allowance (RDA)
